Results published in ChEMBL document CHEMBL3045350, “Inheritance of resistance to a new non-steroidal ecdysone agonist, fufenozide, in the diamondback moth, Plutella xylostella (Lepidoptera: Plutellidae)” (2010).
Values after ≈ are worked out from the molar mass of the structure shown.

Columns and labels:
Assay type in all cases: functional
[1] = test system: Plutella xylostella; experiment: Resistant ratio, ratio of LC50 for F1 generation of third-instar larvae of Plutella xylostella (diamondback moth) to LC50 for fufenozide-susceptible third-instar larvae of Plutella xylostella
[2] = test system: Plutella xylostella; experiment: Insecticidal activity against backcrossed third-instar larvae of Plutella xylostella (diamondback moth) in cabbage leaf assessed as mortality after 96 hr by leaf dip method; settings: foliar
[3] = test system: Plutella xylostella; experiment: Insecticidal activity against F2 generation of third-instar larvae of Plutella xylostella (diamondback moth) in cabbage leaf assessed as mortality after 96 hr by leaf dip method; settings: foliar
[4] = test system: Plutella xylostella; experiment: Insecticidal activity against F1 pooled generation of third-instar larvae of Plutella xylostella (diamondback moth) in cabbage leaf assessed as mortality after 96 hr by leaf dip method; settings: foliar
[5] = test system: Plutella xylostella; experiment: Insecticidal activity against F'1 generation of third-instar larvae of Plutella xylostella (diamondback moth) in cabbage leaf assessed as mortality after 96 hr by leaf dip method; settings: foliar
[6] = test system: Plutella xylostella; experiment: Insecticidal activity against F1 generation of third-instar larvae of Plutella xylostella (diamondback moth) in cabbage leaf assessed as mortality after 96 hr by leaf dip method; settings: foliar
[7] = test system: Plutella xylostella; experiment: Insecticidal activity against fufenozide-susceptible third-instar larvae of Plutella xylostella (diamondback moth) in cabbage leaf assessed as mortality after 96 hr by leaf dip method; settings: foliar
[8] = test system: Plutella xylostella; experiment: Insecticidal activity against fufenozide-resistant 39th generation of third-instar larvae of Plutella xylostella (diamondback moth) in cabbage leaf assessed as mortality after 96 hr by leaf dip method; settings: foliar
[9] = test system: Plutella xylostella; experiment: Resistant ratio, ratio of LC50 for backcrossed third-instar larvae of Plutella xylostella (diamondback moth) to LC50 for fufenozide-susceptible third-instar larvae of Plutella xylostella
[10] = test system: Plutella xylostella; experiment: Resistant ratio, ratio of LC50 for F2 generation of third-instar larvae of Plutella xylostella (diamondback moth) to LC50 for fufenozide-susceptible third-instar larvae of Plutella xylostella
[11] = test system: Plutella xylostella; experiment: Resistant ratio, ratio of LC50 for F1 pooled generation of third-instar larvae of Plutella xylostella (diamondback moth) to LC50 for fufenozide-susceptible third-instar larvae of Plutella xylostella
[12] = test system: Plutella xylostella; experiment: Resistant ratio, ratio of LC50 for F'1 generation of third-instar larvae of Plutella xylostella (diamondback moth) to LC50 for fufenozide-susceptible third-instar larvae of Plutella xylostella

Cc1cc(C)cc(C(=O)N(NC(=O)c2ccc3c(c2C)OC(C)C3)C(C)(C)C)c1 (configuration not stated) [FUXIAN]
RatioLC50 [1]: 1.76 | LC50 [2]: 6.93 µg/mL (≈ 17.6 µM) | LC50 [3]: 5 µg/mL (≈ 12.7 µM) | LC50 [4]: 5.82 µg/mL (≈ 14.8 µM) | LC50 [5]: 6.22 µg/mL (≈ 15.8 µM) | LC50 [6]: 5.22 µg/mL (≈ 13.2 µM) | LC50 [7]: 2.23 µg/mL (≈ 5.66 µM) | LC50 [8]: 1480 µM | RatioLC50 [9]: 2.33 | RatioLC50 [10]: 2.24 | RatioLC50 [11]: 2.61 | RatioLC50 [12]: 2.09
